From patent US10626144B2, “Peptide derivatives and uses thereof” (Nosopharm, priority 2014, dated 2020)
pIC50: −log10 of the molar value. Where two headings read alike, the source gives them in different places. Numbered stars: 1 amine (or outer) side, 2 acyl side, 3 side chain; on linkers, the order of the positions; unused ones are H or OH. Square brackets hold non-standard residues; d marks the D form. Peptide text beside a SMILES is read from it. * marks the point of attachment. Phe(3-Cl) = N[C@@H](Cc1cccc(Cl)c1)C(=O)O; Phe(4-I) = N[C@@H](Cc1ccc(I)cc1)C(=O)O; Dab(3S-OH) = NC[C@H](O)[C@H](N)C(=O)O; His(τ-Me) = Cn1cnc(C[C@H](N)C(=O)O)c1; ΔZArg = N=C(N)NCC/C=C(\N)C(=O)O; aThr = C[C@H](O)[C@H](N)C(=O)O; X2 = CC=C(N[*:1])C(=O)[*:2]; dOrn = NCCC[C@@H](N)C(=O)O; Pra = C#CC[C@H](N)C(=O)O; Abu = CC[C@H](N)C(=O)O; NH(CH2)4NH2 = NCCCCN*

How the values were obtained:
[1] = system: Staphylococcus aureus ATCC 13709; assay: MIC, broth microdilution (CLSI), reference strain; conditions: CAMHB
[2] = system: Escherichia coli ATCC 25922; assay: MIC, broth microdilution (CLSI), reference strain; conditions: CAMHB
[3] = system: Acinetobacter baumannii ATCC 19606; assay: MIC, broth microdilution (CLSI), reference strain; conditions: CAMHB
[4] = molecular target: N-type calcium channels (Cav2.2) (Rattus norvegicus (Rat), UniProt Q02294); assay: biochemical; format: binding
[5] = system: Pseudomonas aeruginosa ATCC 27853; assay: MIC, broth microdilution (CLSI), reference strain; conditions: CAMHB
[6] = class symbol, rat cerebral cortex, [125I]ω-conotoxin GVIA 0.001 nM, 30 minutes at room temperature, read-out: IC50 Cav2.2
[7] = value in brackets, rat cerebral cortex, [125I]ω-conotoxin GVIA 0.001 nM, read-out: IC50 Cav2.2

Row | SMILES | Sa: MIC Staphylococcus aureus ATCC 13709 [1] | Ec: MIC Escherichia coli ATCC 25922 [2] | Ab: MIC Acinetobacter baumannii ATCC 19606 [3] | pIC50 [4, 6] | Pa: MIC Pseudomonas aeruginosa ATCC 27853 [5] | pIC50 [4] | pIC50 [4, 7]
1 | C[C@H](NC(=O)[C@@H](NC(=O)[C@@H](N)CCCCN)[C@@H](O)CN)C(=O)NCC(=O)N[C@H](CCCN)C(=O)N1CCC[C@H]1C(=O)N[C@@H](Cc1cccc(Cl)c1)C(=O)N[C@@H](CCCCN)C(=O)N/C(=C\CCNC(=N)N)C(=O)O [24.88] (H-K[Dab(3S-OH)]AG[dOrn]P[Phe(3-Cl)]K[ΔZArg]-OH) | ++ (≤8 μg/mL) | ++ (≤8 μg/mL) | − (>32 μg/mL) | < 6.52 | − (>32 μg/mL) |  | 
2 | C[C@H](NC(=O)[C@@H](NC(=O)[C@@H](N)CCCCN)[C@@H](O)CN)C(=O)NCC(=O)N[C@H](CCCN)C(=O)N1CCC[C@H]1C(=O)N[C@@H](Cc1ccc(O)cc1)C(=O)N[C@@H](CCCCN)C(=O)N/C(=C\CCNC(=N)N)C(=O)O [24.138] (H-K[Dab(3S-OH)]AG[dOrn]PYK[ΔZArg]-OH) | + (≤32 μg/mL) | + (≤32 μg/mL) | − (>32 μg/mL) | < 6.52 | − (>32 μg/mL) |  | 
3 | C[C@H](NC(=O)[C@@H](NC(=O)[C@@H](N)CCCCN)[C@@H](O)CN)C(=O)NCC(=O)N[C@H](CCCN)C(=O)N1CCC[C@H]1C(=O)N[C@@H](Cc1cn(C)cn1)C(=O)N[C@@H](CCCCN)C(=O)N/C(=C\CCNC(=N)N)C(=O)O [24.76] (H-K[Dab(3S-OH)]AG[dOrn]P[His(τ-Me)]K[ΔZArg]-OH) | + (≤32 μg/mL) | − (>32 μg/mL) | − (>32 μg/mL) | < 6.52 | − (>32 μg/mL) |  | 
4 | C[C@H](NC(=O)[C@@H](NC(=O)[C@@H](NC(=O)[C@@H](N)CCCCN)[C@@H](O)CN)[C@@H](O)CN)C(=O)N[C@H](CCCN)C(=O)N1CCC[C@H]1C(=O)N[C@@H](Cc1cnc[nH]1)C(=O)N[C@@H](CCCCN)C(=O)N/C(=C\CCNC(=N)N)C(=O)N[C@@H](CCCCN)C(=O)NCCCCN [22.24] (H-K[Dab(3S-OH)][Dab(3S-OH)]A[dOrn]PHK[ΔZArg]K-{NH(CH2)4NH2}) | ++ (≤8 μg/mL) | − (>32 μg/mL) | − (>32 μg/mL) | > 7.52 | − (>32 μg/mL) |  | 
5 | C[C@H](NC(=O)[C@@H](NC(=O)[C@@H](N)CCCCN)[C@@H](O)CN)C(=O)NCC(=O)N[C@H](CCCN)C(=O)N1CCC[C@H]1C(=O)N[C@@H](Cc1cn(C)cn1)C(=O)N[C@@H](CCCCN)C(=O)N/C(=C\CCNC(=N)N)C(=O)N[C@@H](CCCCN)C(=O)NCCCCN [24.15] (H-K[Dab(3S-OH)]AG[dOrn]P[His(τ-Me)]K[ΔZArg]K-{NH(CH2)4NH2}) | ++ (≤8 μg/mL) | ++ (≤8 μg/mL) | − (>32 μg/mL) | > 7.52 | + (≤32 μg/mL) |  | 
6 | C[C@H](O)[C@H](NC(=O)[C@@H](NC(=O)[C@@H](N)CCCCN)[C@@H](O)CN)C(=O)NCC(=O)N[C@H](CCCN)C(=O)N1CCC[C@H]1C(=O)N[C@@H](Cc1cnc[nH]1)C(=O)N[C@@H](CCCCN)C(=O)N/C(=C\CCNC(=N)N)C(=O)O [25.2] (H-K[Dab(3S-OH)][aThr]G[dOrn]PHK[ΔZArg]-OH) | − (>32 μg/mL) | − (>32 μg/mL) | − (>32 μg/mL) | < 6.52 | − (>32 μg/mL) |  | 
7 | CC[C@H](NC(=O)[C@@H](NC(=O)[C@@H](N)CCCCN)[C@@H](O)CN)C(=O)NCC(=O)N[C@H](CCCN)C(=O)N1CCC[C@H]1C(=O)N[C@@H](Cc1cnc[nH]1)C(=O)N[C@@H](CCCCN)C(=O)N/C(=C\CCNC(=N)N)C(=O)N[C@@H](CCCCN)C(=O)NCCCCN [28.1] (H-K[Dab(3S-OH)][Abu]G[dOrn]PHK[ΔZArg]K-{NH(CH2)4NH2}) | ++ (≤8 μg/mL) | ++ (≤8 μg/mL) | − (>32 μg/mL) | > 7.52 | − (>32 μg/mL) |  | 
8 | C[C@H](O)[C@H](NC(=O)[C@@H](NC(=O)[C@@H](N)CCCCN)[C@@H](O)CN)C(=O)NCC(=O)N[C@H](CCCN)C(=O)N1CCC[C@H]1C(=O)N[C@@H](Cc1cnc[nH]1)C(=O)N[C@@H](CCCCN)C(=O)N/C(=C\CCNC(=N)N)C(=O)N[C@@H](CCCCN)C(=O)NCCCCN [25.1] (H-K[Dab(3S-OH)][aThr]G[dOrn]PHK[ΔZArg]K-{NH(CH2)4NH2}) | ++ (≤8 μg/mL) | ++ (≤8 μg/mL) | − (>32 μg/mL) |  | + (≤32 μg/mL) | > 7.52 | 8.52
9 | C[C@H](NC(=O)[C@@H](NC(=O)[C@@H](N)CCCCN)[C@@H](O)CN)C(=O)NCC(=O)N[C@H](CCCN)C(=O)N1CCC[C@H]1C(=O)N[C@@H](Cc1ccc(I)cc1)C(=O)N[C@@H](CCCCN)C(=O)N/C(=C\CCNC(=N)N)C(=O)O [24.103] (H-K[Dab(3S-OH)]AG[dOrn]P[Phe(4-I)]K[ΔZArg]-OH) | ++ (≤8 μg/mL) | ++ (≤8 μg/mL) | − (>32 μg/mL) | < 6.52 | − (>32 μg/mL) |  | 
10 | CC=C(NC(=O)[C@H](CCCCN)NC(=O)[C@H](Cc1cnc[nH]1)NC(=O)[C@@H]1CCCN1C(=O)[C@@H](CCCN)NC(=O)CNC(=O)[C@@H](NC(=O)[C@@H](NC(=O)[C@@H](N)CCCCN)[C@@H](O)CN)[C@@H](O)CN)C(=O)N[C@@H](CCCCN)C(=O)NCCCCN [22.15] (H-K[Dab(3S-OH)][Dab(3S-OH)]G[dOrn]PHK[X2]K-{NH(CH2)4NH2}) | ++ (≤8 μg/mL) | + (≤32 μg/mL) | − (>32 μg/mL) |  | − (>32 μg/mL) | > 7.52 | 8.40
11 | C#CC[C@H](NC(=O)[C@@H]1CCCN1C(=O)[C@@H](CCCN)NC(=O)CNC(=O)[C@H](C)NC(=O)[C@@H](NC(=O)[C@@H](N)CCCCN)[C@@H](O)CN)C(=O)N[C@@H](CCCCN)C(=O)N/C(=C\CCNC(=N)N)C(=O)N[C@@H](CCCCN)C(=O)NCCCCN [24.67] (H-K[Dab(3S-OH)]AG[dOrn]P[Pra]K[ΔZArg]K-{NH(CH2)4NH2}) | − (>32 μg/mL) | ++ (≤8 μg/mL) | − (>32 μg/mL) | > 7.52 | + (≤32 μg/mL) |  | 
12 | C[C@H](NC(=O)[C@H](CCCCN)NC(=O)[C@H](Cc1cnc[nH]1)NC(=O)[C@@H]1CCCN1C(=O)[C@@H](CCCN)NC(=O)CNC(=O)[C@@H](NC(=O)[C@@H](NC(=O)[C@@H](N)CCCCN)[C@@H](O)CN)[C@@H](O)CN)C(=O)N[C@@H](CCCCN)C(=O)NCCCCN [22.23] (H-K[Dab(3S-OH)][Dab(3S-OH)]G[dOrn]PHKAK-{NH(CH2)4NH2}) | ++ (≤8 μg/mL) | − (>32 μg/mL) | − (>32 μg/mL) | > 7.52 | − (>32 μg/mL) |  | 
